Experiments:
[1] = Zinc level in blood after intra-testicular injection of zinc acetate; conditions: pigs; for Zinc Concentration in blood: intra-testicular 0.5 ml (74 mg/ml) each testis
[2] = Zinc level in blood after intramuscular injection of zinc acetate; conditions: pigs, intramuscular 30 mg/kg

Structure (SMILES): CC(=O)[O-].CC(=O)[O-].[Zn+2] [zinc acetate]
- mean residence time ([1]; intra-testicular): ~60 h
- time of second absorption phase after injection ([1]; intra-testicular): 24 h
- Zinc Concentration in blood ([1]; 0 Min (taken as zero)): 0 μ mol/L
- Zinc Concentration in blood ([1]; 30 Min): 8.44 μ mol/L
- Zinc Concentration in blood ([1]; 1 hr.): 7.49 μ mol/L
- Zinc Concentration in blood ([1]; 2 hr.): 5.65 μ mol/L
- Zinc Concentration in blood ([1]; 3 hr.): 5.27 μ mol/L
- Zinc Concentration in blood ([1]; 4 hr.): 4.96 μ mol/L
- Zinc Concentration in blood ([1]; 6 hr.): 4.06 μ mol/L
- Zinc Concentration in blood ([1]; 8 hr.): 4.43 μ mol/L
- Zinc Concentration in blood ([1]; 12 hr.): 3.87 μ mol/L
- Zinc Concentration in blood ([1]; 24 hr.): 4.43 μ mol/L
- Zinc Concentration in blood ([1]; 48 hr.): 3.11 μ mol/L
- Zinc Concentration in blood ([1]; 72 hr.): −0.36 μ mol/L
- Zinc Concentration in blood ([1]; 96 hr.): −0.29 μ mol/L
- Zinc Concentration in blood ([2]; 0 Min (physiological level)): 45.3 μ mol/L
- Zinc Concentration in blood ([2]; 30 min): 194.08 μ mol/L
- Zinc Concentration in blood ([2]; 1 hr.): 76.17 μ mol/L
- Zinc Concentration in blood ([2]; 2 hr.): 67.4 μ mol/L
- Zinc Concentration in blood ([2]; 3 hr.): 65.22 μ mol/L
- Zinc Concentration in blood ([2]; 4 hr.): 62.8 μ mol/L
- Zinc Concentration in blood ([2]; 6 hr.): 61.6 μ mol/L
- Zinc Concentration in blood ([2]; 8 hr.): 60.8 μ mol/L
- Zinc Concentration in blood ([2]; 12 hr.): 54.3 μ mol/L
- Zinc Concentration in blood ([2]; 16 hr.): 48.7 μ mol/L
- Zinc Concentration in blood ([2]; 24 hr.): 47.3 μ mol/L
- Zinc Concentration in blood ([2]; 36 hr.): 44.5 μ mol/L
- Zinc Concentration in blood ([2]; 48 hr.): 44.2 μ mol/L

Source: patent publication US20140271716A1, “Intra-testicular Injection of Immunogens” (priority 2013, published 2014)
